Experimental findings from ChEMBL document CHEMBL1201862, “PubChem BioAssay data set” (2004) are described below.

Some test systems named below: MOLT-4; SF-268; RXF 393; MDA-N; SN12C; TK-10; ACHN; KM12; SF-539; UACC-62; SNB-19; NCI-H460; 786-0; SK-MEL-28; HCC 2998; NCI-H522; K562; PC-3; OVCAR-3; HL-60.
Experiment in all cases: DTP human tumour cell line panel, 48 h

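48-hour exposure; five concentrations; linearly interpolated endpoints. Abbreviation: GI50, concentration required for 50% inhibition of growth.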 The source made the active and inactive calls. Rule as the data show it: active = GI50 up to about 1.1 µM and inactive = higher. Some results are limits rather than exact numbers.

As a reminder, the GI50 is the concentration at which growth is held to half of that of the control. Take `CCN(CC)CCNc1ccc2nnn3c4ccc(OCCN(CC)CC)cc4c(=O)c1c23`: the GI50 in the assay with MOLT-4 is 6.73 µM (inactive); with SF-268, 54.1 µM (inactive); in the assay with RXF 393, 62.5 µM (inactive); in the assay on MDA-N, 66.5 µM (inactive); with SN12C, 32.4 µM (inactive); in the assay with TK-10, 28.5 µM (inactive). Further, the GI50 in the assay on ACHN was 65.2 µM (inactive); with KM12, 32.3 µM (inactive); in the assay with SF-539 it was 96.8 µM (inactive); in the assay with UACC-62, > 100 µM (inactive); in the assay on SNB-19, 48.5 µM (inactive); with NCI-H460 it was 33.7 µM (inactive). Also, the GI50 is 21.6 µM (inactive) in the assay with 786-0; > 100 µM (inactive) in the assay with SK-MEL-28; > 100 µM (inactive) in the assay with HCC 2998; 18.8 µM (inactive) in the assay with NCI-H522; 38.6 µM (inactive) in the assay on K562.
Consider `O=C1c2ccccc2-c2nc(/C=C/c3ccccc3)cc3c2c1nc1ccccc13`, for which the GI50 in the assay on MOLT-4 is 23.6 µM (inactive); with SF-268 it was 65 µM (inactive); in the assay on RXF 393 it was 29.2 µM (inactive); in the assay with SN12C it was 33.2 µM (inactive); with TK-10, 81.8 µM (inactive); in the assay on ACHN it was 26.4 µM (inactive). Moreover, the GI50 with KM12 was 18.5 µM (inactive); in the assay on SF-539, 27.4 µM (inactive); in the assay with UACC-62 it was 9.82 µM (inactive); in the assay with SNB-19, 80.5 µM (inactive); in the assay on PC-3 it was 4.56 µM (inactive); with OVCAR-3, 0.265 µM (active). Also, the GI50 is 30.5 µM (inactive) in the assay with 786-0; 23.1 µM (inactive) in the assay with SK-MEL-28; 20.4 µM (inactive) in the assay on HCC 2998; 10.3 µM (inactive) in the assay on NCI-H522; 3.47 µM (inactive) in the assay with K562.
As for `COc1cc(O)c2c(=O)c(O)c(-c3ccc(O)c(OC)c3)oc2c1` [RHAMNAZIN], the GI50 is 4.41 µM (inactive) in the assay with MOLT-4; 4.11 µM (inactive) with HL-60; 1.89 µM (inactive) in the assay with SF-268; 4.8 µM (inactive) in the assay with MDA-N; > 100 µM (inactive) in the assay with SN12C; > 100 µM (inactive) in the assay on TK-10. Besides, the GI50 with KM12 is 3.47 µM (inactive); with SF-539, 3.7 µM (inactive); in the assay on SNB-19, 3.83 µM (inactive); in the assay with NCI-H460, 2.64 µM (inactive); in the assay on PC-3, 11 µM (inactive); in the assay on OVCAR-3, 2.52 µM (inactive). In addition, the GI50 in the assay with 786-0 is 3.44 µM (inactive); in the assay on HCC 2998 it was 7.6 µM (inactive); in the assay with NCI-H522 it was 2.3 µM (inactive); with K562, 4.37 µM (inactive).
As for `C=C1CN=C(Nc2ccc(Cl)cc2)S1`, the GI50 in the assay with MOLT-4 is > 10 µM (inactive); with HL-60 it was > 10 µM (inactive); in the assay on SF-268, > 100 µM (inactive); with MDA-N it was > 100 µM (inactive); in the assay on SN12C, > 100 µM (inactive); with TK-10, > 100 µM (inactive). Besides, the GI50 in the assay with ACHN is > 100 µM (inactive); in the assay on KM12 it was 66.7 µM (inactive); in the assay on SF-539, > 100 µM (inactive); in the assay with SNB-19 it was > 100 µM (inactive); with NCI-H460 it was > 100 µM (inactive); with PC-3 it was > 100 µM (inactive). For the same compound, the GI50 with OVCAR-3 is > 100 µM (inactive); in the assay with 786-0 it was > 100 µM (inactive); with SK-MEL-28, > 100 µM (inactive); in the assay with HCC 2998, > 100 µM (inactive); in the assay on K562 it was 96.8 µM (inactive).
For the compound `C[B@@-]1(c2ccc(C(F)(F)F)cc2)N[C@@H](Cc2ccccc2)C(=O)O1`, the GI50 with MOLT-4 was > 100 µM (inactive); in the assay on HL-60, 31.8 µM (inactive); in the assay with SF-268, > 100 µM (inactive); in the assay on MDA-N it was > 100 µM (inactive); in the assay with SN12C, > 100 µM (inactive); with TK-10, > 100 µM (inactive). Besides, the GI50 with ACHN, in the assay on UACC-62, with SNB-19, with NCI-H460, in the assay with PC-3 and in the assay on OVCAR-3 was > 100 µM (inactive) each time. The GI50 in the assay with 786-0, in the assay with SK-MEL-28, in the assay on HCC 2998 and in the assay on K562 was > 100 µM (inactive) in each case.
With `C=CC[C@@]1(C(=O)OC)[C@H](Sc2ccccc2)C1(C)C`, the GI50 with MOLT-4 was 14.4 µM (inactive); in the assay with HL-60 it was 16.2 µM (inactive); in the assay with SF-268 it was 85.5 µM (inactive); in the assay on SN12C it was 21.1 µM (inactive); in the assay with TK-10, > 100 µM (inactive); with ACHN, > 100 µM (inactive). In addition, the GI50 in the assay on KM12 was 35.1 µM (inactive); in the assay with SF-539, 35.3 µM (inactive); with UACC-62, 45.5 µM (inactive); with SNB-19, > 100 µM (inactive); in the assay on NCI-H460 it was 66.5 µM (inactive); in the assay with PC-3, 47.3 µM (inactive). Besides, the GI50 with OVCAR-3 was 44.3 µM (inactive); with 786-0 it was 33.4 µM (inactive); with SK-MEL-28, 78.2 µM (inactive); in the assay on HCC 2998, 27 µM (inactive); with NCI-H522, 30.5 µM (inactive).
As to `c1ccc2c(c1)NC(C1OC3CCCN3C1C1Nc3ccccc3S1)S2` (centres undefined), the GI50 with MOLT-4 was 29.9 µM (inactive); in the assay with HL-60 it was 20.6 µM (inactive); in the assay on SF-268 it was > 100 µM (inactive); with RXF 393 it was 21.2 µM (inactive); in the assay on SN12C it was > 100 µM (inactive); with TK-10, > 100 µM (inactive). Moreover, the GI50 was > 100 µM (inactive) in the assay with ACHN; 46.5 µM (inactive) with KM12; > 100 µM (inactive) with SF-539; 79.8 µM (inactive) with UACC-62; > 100 µM (inactive) with SNB-19; 41.2 µM (inactive) with NCI-H460. Further, the GI50 with PC-3 was 44.1 µM (inactive); in the assay on OVCAR-3, 46.5 µM (inactive); in the assay on 786-0 it was > 100 µM (inactive); with SK-MEL-28, > 100 µM (inactive); in the assay on HCC 2998, > 100 µM (inactive); in the assay on NCI-H522, 28.2 µM (inactive). Moreover, in the assay with K562, the GI50 is 31 µM (inactive).
For the compound `CSc1c(C#N)c2n(c3ccccc13)c1ccccc1[n+]2C`, the GI50 is 12.9 µM (inactive) in the assay with MOLT-4; 20.3 µM (inactive) in the assay with HL-60; 28.5 µM (inactive) in the assay with SF-268; 26.2 µM (inactive) in the assay on MDA-N; 18.2 µM (inactive) in the assay on SN12C; 21.1 µM (inactive) in the assay on TK-10. Also, the GI50 with ACHN is 18.2 µM (inactive); with KM12, 28.5 µM (inactive); in the assay on SF-539 it was 22.4 µM (inactive); in the assay on UACC-62 it was 16.9 µM (inactive); in the assay with SNB-19, > 10 µM (inactive); with NCI-H460, 26.4 µM (inactive). For the same compound, the GI50 in the assay on PC-3 was 26.7 µM (inactive); with OVCAR-3, 37.4 µM (inactive); in the assay on 786-0 it was 32.7 µM (inactive); in the assay with SK-MEL-28, 23.9 µM (inactive); with HCC 2998 it was 27.9 µM (inactive); in the assay with NCI-H522, 12.3 µM (inactive).
For the compound `O=P1(O)C=CC2(CCCC2)O1`, the GI50 in the assay on HL-60, in the assay on SF-268, with MDA-N, with SN12C, in the assay on TK-10 and with ACHN was > 100 µM (inactive) each time. Besides, the GI50 in the assay on KM12, with SF-539, in the assay with UACC-62, in the assay on SNB-19, in the assay on NCI-H460 and in the assay on PC-3 was > 100 µM (inactive) throughout. In addition, the GI50 with OVCAR-3, in the assay on 786-0, in the assay with SK-MEL-28, in the assay on HCC 2998, in the assay with NCI-H522 and in the assay on K562 was > 100 µM (inactive) throughout.
As for `C[C@@H]1OC(=O)C[C@H]2CC(=O)N(CCC3CN(S(=O)(=O)C(F)(F)F)c4ccccc43)C[C@@H]21` (some centres undefined), the GI50 with MOLT-4, in the assay on RXF 393, in the assay on ACHN, with KM12, in the assay with UACC-62 and in the assay with SNB-19 was > 100 µM (inactive) throughout. Moreover, the GI50 in the assay on NCI-H460, in the assay with PC-3, in the assay with OVCAR-3, in the assay with 786-0, in the assay on SK-MEL-28 and in the assay with HCC 2998 was > 100 µM (inactive) in each case. In addition, the GI50 with NCI-H522 and with K562 was > 100 µM (inactive) in each case.
In the case of `CSc1ccc(Nc2cc(=O)[nH]c(=O)[nH]2)cc1`, the GI50 with MOLT-4, in the assay with HL-60, in the assay on SF-268, with MDA-N, in the assay on SN12C and with ACHN was > 100 µM (inactive) each time. The GI50 in the assay on SF-539, in the assay with UACC-62, with SNB-19, in the assay on NCI-H460, in the assay with PC-3 and with OVCAR-3 was > 100 µM (inactive) throughout. Moreover, the GI50 with 786-0, in the assay with SK-MEL-28, in the assay with HCC 2998, with NCI-H522 and with K562 was > 100 µM (inactive) in each case.
Turning to `Cc1ccc(C2CC(c3ccc([N+](=O)[O-])cc3)=Nc3ccccc3S2)cc1` (centres undefined), the GI50 with MOLT-4 is 15.1 µM (inactive); with HL-60 it was 19.8 µM (inactive); in the assay on SF-268, 24.4 µM (inactive); in the assay on RXF 393, 12.1 µM (inactive); with SN12C, 25.5 µM (inactive); in the assay on TK-10 it was 34.8 µM (inactive). For the same compound, the GI50 is 27.6 µM (inactive) with ACHN; 18.4 µM (inactive) with KM12; 26.2 µM (inactive) in the assay on SF-539; 32.8 µM (inactive) in the assay with UACC-62; 23 µM (inactive) with SNB-19; 36.9 µM (inactive) in the assay with NCI-H460. For the same compound, the GI50 in the assay on OVCAR-3 was 24.7 µM (inactive); in the assay on 786-0, 14.6 µM (inactive); in the assay with SK-MEL-28, 29 µM (inactive); in the assay with HCC 2998, 20.3 µM (inactive); in the assay with NCI-H522 it was 20.1 µM (inactive); with K562, 13.4 µM (inactive).
